Measured values from patent US20140135310A1, “SULPHONAMIDE DERIVATIVES OF ALICYCLIC AMINES FOR THE TREATMENT OF CENTRAL NERVOUS SYSTEM DISEASES” (Adamed Sp. z o.o., priority 2011, published 2014).
Read-outs that look alike come from different tables or passages of the source.

What was measured:
Format in all cases: cell-based
[1] = target: T1, 5-HT1A serotoninergic receptors (Homo sapiens, UniProt P08908); test: Cellular functional assay, 5-HT1A serotoninergic receptors; conditions: for 5-HT1A ag [%]: agonist mode, percent of control specific agonist response
T1 sequence (P08908 1-422): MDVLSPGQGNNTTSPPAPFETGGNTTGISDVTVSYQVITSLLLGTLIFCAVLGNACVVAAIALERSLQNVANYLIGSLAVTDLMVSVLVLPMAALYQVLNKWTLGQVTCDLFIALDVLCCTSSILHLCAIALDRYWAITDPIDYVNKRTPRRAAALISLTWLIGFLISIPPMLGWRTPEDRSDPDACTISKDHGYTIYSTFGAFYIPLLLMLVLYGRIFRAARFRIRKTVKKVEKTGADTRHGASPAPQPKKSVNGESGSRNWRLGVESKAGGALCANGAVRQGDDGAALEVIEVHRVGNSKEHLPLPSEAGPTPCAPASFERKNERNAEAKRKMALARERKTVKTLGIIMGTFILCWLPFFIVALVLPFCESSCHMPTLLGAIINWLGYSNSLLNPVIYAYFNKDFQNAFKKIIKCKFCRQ
Experimental: (§1) The results are expressed as a percent of control specific agonist response ((measured specific response/control specific agonist response)×100) obtained in the presence of the test compounds.
(§2) The EC50 values (concentration producing a half-maximal specific response) and IC50 values (concentration causing a half-maximal inhibition of the control specific agonist response) were determined by non-linear regression analysis of the concentration-response curves generated with mean replicate values using Hill equation curve fitting (Y=D+[(A−D)/(1+(C/C50)nH)], where Y=specific response, D=minimum specific response, A=maximum specific response, C=compound concentration, and C50=EC50 or IC50, and nH=slope factor). This analysis was performed using a software developed at Cerep (Hill software) and validated by comparison with data generated by the commercial software SigmaPlot® 4.0 for Windows® (© 1997 by SPSS Inc.).
(§3) For the antagonists, the apparent dissociation constants (Kb) were calculated using the modified Cheng Prusoff equation (Kb=IC50/(1+(A/EC50A)), where A=concentration of reference agonist in the assay, and EC50A=EC50 value of the reference agonist).

[2] = target: T2, 5-HT2C serotoninergic receptors (Homo sapiens, UniProt P28335); test: Cellular functional assay, 5-HT2C serotoninergic receptors; conditions: for 5-HT2C ag [%]: agonist mode, percent of control specific agonist response; for 5-HT2C antag [%]: antagonist mode
T2 sequence (P28335 33-458): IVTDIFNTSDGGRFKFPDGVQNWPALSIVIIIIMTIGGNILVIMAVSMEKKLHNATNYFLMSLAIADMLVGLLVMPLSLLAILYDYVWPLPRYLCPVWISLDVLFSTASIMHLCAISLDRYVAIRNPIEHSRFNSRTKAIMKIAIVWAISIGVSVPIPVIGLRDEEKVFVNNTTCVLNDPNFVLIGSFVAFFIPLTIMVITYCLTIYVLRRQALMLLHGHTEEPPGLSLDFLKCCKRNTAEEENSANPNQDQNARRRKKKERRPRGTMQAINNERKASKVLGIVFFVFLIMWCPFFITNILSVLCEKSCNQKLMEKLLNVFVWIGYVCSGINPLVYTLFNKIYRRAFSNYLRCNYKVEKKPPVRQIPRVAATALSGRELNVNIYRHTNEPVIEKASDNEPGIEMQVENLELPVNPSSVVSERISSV
Experimental: as §1, §2, §3

[3] = target: 5-HT7 serotoninergic receptors (Homo sapiens, UniProt P34969); test: Cellular functional assay, 5-HT7 serotoninergic receptors; conditions: for 5-HT7 ag [%]: agonist mode, percent of control specific agonist response
Experimental: as §1, §2, §3

[4] = target: 5-HT2A serotoninergic receptors (Homo sapiens, UniProt P28223); test: Cellular functional assay, 5-HT2A serotoninergic receptors
Experimental: as §1
as §2, with “factor).” for “factor). This analysis was performed using a software developed at Cerep (Hill software) and validated by comparison with data generated by the commercial software SigmaPlot® 4.0 for Windows® (© 1997 by SPSS Inc.).”
as §3

[5] = target: D3 dopaminergic receptors (Homo sapiens, UniProt P35462); test: Cellular functional assay, D3 dopaminergic receptors; conditions: D3 (h), CHO cells; for D3 ag [%]: agonism, percent of control specific agonist response (0.3 μM dopamine for control); for D3 antag [%]: antagonism, stimulus dopamine (10 nM)
Experimental: as §1, §2, §3

[6] = target: T3, D4 dopaminergic receptors (Homo sapiens, UniProt P21917); test: Cellular functional assay, D4 dopaminergic receptors; conditions: D4.4 (h), CHO cells; for D4 ag [%]: agonism, percent of control specific agonist response (300 nM dopamine for control); for D4 antag [%]: antagonism, stimulus dopamine (100 nM)
T3 sequence (P21917 1-419): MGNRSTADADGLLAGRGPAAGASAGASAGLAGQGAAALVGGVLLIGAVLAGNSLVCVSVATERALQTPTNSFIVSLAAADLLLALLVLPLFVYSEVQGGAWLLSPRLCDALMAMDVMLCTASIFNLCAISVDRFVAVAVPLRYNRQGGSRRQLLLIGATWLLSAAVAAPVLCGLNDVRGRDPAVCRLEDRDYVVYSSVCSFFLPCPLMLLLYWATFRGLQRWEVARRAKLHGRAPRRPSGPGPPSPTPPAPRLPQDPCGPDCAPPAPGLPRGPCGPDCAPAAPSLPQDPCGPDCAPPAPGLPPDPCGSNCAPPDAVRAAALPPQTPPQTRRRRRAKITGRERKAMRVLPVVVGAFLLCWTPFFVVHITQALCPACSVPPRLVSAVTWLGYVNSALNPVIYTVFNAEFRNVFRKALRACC
Experimental: as §1, §2, §3

[7] = agonist mode, percent of control specific agonist response

5-HT7 serotoninergic receptors, sequence (P34969 whole entry): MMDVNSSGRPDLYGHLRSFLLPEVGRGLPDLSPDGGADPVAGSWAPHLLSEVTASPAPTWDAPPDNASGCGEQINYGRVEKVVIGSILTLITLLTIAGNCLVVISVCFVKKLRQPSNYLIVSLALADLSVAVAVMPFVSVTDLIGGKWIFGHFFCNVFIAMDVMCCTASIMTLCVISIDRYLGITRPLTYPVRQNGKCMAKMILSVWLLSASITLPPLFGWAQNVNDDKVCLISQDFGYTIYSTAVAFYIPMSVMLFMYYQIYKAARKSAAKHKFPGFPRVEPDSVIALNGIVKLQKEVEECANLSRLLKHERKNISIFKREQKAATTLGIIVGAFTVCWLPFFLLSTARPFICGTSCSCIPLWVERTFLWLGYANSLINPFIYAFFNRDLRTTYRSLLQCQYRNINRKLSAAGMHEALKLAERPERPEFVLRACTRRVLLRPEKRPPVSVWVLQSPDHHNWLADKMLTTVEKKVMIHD
D3 dopaminergic receptors, sequence (P35462 whole entry): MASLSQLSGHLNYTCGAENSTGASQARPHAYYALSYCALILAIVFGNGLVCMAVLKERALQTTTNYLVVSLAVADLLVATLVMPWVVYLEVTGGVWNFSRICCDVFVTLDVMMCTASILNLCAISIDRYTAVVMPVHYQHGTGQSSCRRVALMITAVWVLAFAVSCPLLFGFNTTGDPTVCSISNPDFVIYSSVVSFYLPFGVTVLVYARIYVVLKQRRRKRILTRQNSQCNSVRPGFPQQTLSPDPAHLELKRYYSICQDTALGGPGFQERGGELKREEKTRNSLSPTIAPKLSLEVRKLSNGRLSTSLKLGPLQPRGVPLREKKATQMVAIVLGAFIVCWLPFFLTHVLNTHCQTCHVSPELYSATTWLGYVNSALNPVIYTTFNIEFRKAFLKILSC
5-HT2A serotoninergic receptors, sequence (P28223 whole entry): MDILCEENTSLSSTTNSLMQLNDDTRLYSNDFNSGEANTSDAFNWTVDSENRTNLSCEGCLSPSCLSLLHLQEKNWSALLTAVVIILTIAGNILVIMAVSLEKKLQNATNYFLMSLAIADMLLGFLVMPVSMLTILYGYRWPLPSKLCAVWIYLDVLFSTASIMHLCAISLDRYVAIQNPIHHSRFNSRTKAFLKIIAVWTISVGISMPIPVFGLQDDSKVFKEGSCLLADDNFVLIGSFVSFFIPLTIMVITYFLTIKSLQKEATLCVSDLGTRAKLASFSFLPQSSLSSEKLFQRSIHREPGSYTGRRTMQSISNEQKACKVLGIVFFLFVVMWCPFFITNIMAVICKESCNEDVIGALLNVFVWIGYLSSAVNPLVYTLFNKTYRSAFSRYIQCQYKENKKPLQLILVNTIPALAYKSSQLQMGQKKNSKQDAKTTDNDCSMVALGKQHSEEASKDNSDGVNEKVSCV

SMILES | 5-HT1A ag [%] [1] | 5-HT2C ag [%] [2] | 5-HT2C antag [%] [2] | 5-HT7 ag [%] [3] | 5-HT2A ag [%] [4] | D3 ag [%] [5] | D3 antag [%] [5] | D4 ag [%] [6] | D4 antag [%] [6] | 5-HT1A antag [%] ([1]; antagonist mode) | 5-HT7 antag [%] ([3]; antagonist mode) | 5-HT2A ag [%] [4, 7] | 5-HT2A antag [%] ([4]; antagonist mode)
CC(C)(C)c1ccc(S(=O)(=O)NCC2CN(CCOc3cccc4c3OCCO4)C2)cc1 [Compound 181, 4-tert-Butyl-N-[[1-[2-(2,3-dihydro-1,4-benzodioxin-5-yloxy)ethyl]azetidin-3-yl]methyl]benzenesulphonamide] | 66% | 46% | 6% | 0% | – | – | – | – | – | – | – | – | –
O=S(=O)(NC1CN(CCOc2cccc3[nH]ccc23)C1)c1ccc2ccccc2c1 [Compound 50, N-[1-[2-(1H-Indol-4-yloxy)ethyl]azetidin-3-yl]naphthalene-2-sulphonamide] | 48% | – | – | 21% | −2% | 85% | 0% | 62% | 32% | – | – | – | –
O=S(=O)(NC1CN(CCOc2cccc3c2OCCO3)C1)c1cccc2ccccc12 [Compound 94, N-[1-[2-(2,3-Dihydro-1,4-benzodioxan-8-yloxy)ethyl]azetidin-3-yl]-naphthalene-1-sulphonamide] | 41% | 92% | −57% | 19% | – | 51% | 38% | 60% | 9% | 90% | 68% | 7% | 48%
Cc1c(S(=O)(=O)N[C@H]2CCN(CCCc3noc4cc(F)ccc34)C2)sc2ccc(F)cc12 [Compound 203, 5-Fluoro-N-[(3S)-1-[3-(6-fluoro-1,2-benzoxazol-3-yl)propyl]pyrrolidin-3-yl]-3-methyl-benzothiophene-2-sulphonamide] | – | 1% | – | 0% | – | 11% | 65% | – | – | – | – | −1% | –
O=S(=O)(NCC1CN(CCOc2cccc3c2OCCO3)C1)c1ccc(Cl)c(Cl)c1 [Compound 183, 3,4-Dichloro-N-[[1-[2-(2,3-dihydro-1,4-benzodioxin-5-yloxy)ethyl]azetidin-3-yl]methyl]benzenesulphonamide] | 71% | 50% | 12% | 2% | 1% | – | – | – | – | – | – | – | –
COc1ccc2cc(S(=O)(=O)N[C@@H]3CCN(CCCc4noc5cc(F)ccc45)C3)ccc2c1 [Compound 230, N-[(3R)-1-[3-(6-Fluoro-1,2-benzoxazol-3-yl)propyl]pyrrolidin-3-yl]-6-methoxy-naphthalene-2-sulphonamide] | – | −2% | – | – | – | 0% | 89% | – | – | – | – | −2% | –
Cc1ccc2sc(S(=O)(=O)N[C@@H]3CCN(CCCc4noc5cc(F)ccc45)C3)cc2c1 [Compound 228, N-[(3R)-1-[3-(6-Fluoro-1,2-benzoxazol-3-yl)propyl]pyrrolidin-3-yl]-5-methyl-benzothiophene-2-sulphonamide] | – | 0% | – | 0% | – | −15% | 98% | – | – | – | – | 1% | –
O=S(=O)(NC1CCN(CCCc2c[nH]c3ccc(F)cc23)C1)c1ccc2ccccc2c1 (stereo not shown) [Compound 80, N-[1-[3-(5-Fluoro-1H-indol-3-yl)propyl]pyrrolidin-3-yl]naphthalene-2-sulphonamide] | 42% | – | – | 3% | 34% | 91% | −5% | 6% | 80% | – | – | – | –
